# How the values were obtained:
# Assay type in all cases: cell-based
# [1] = molecular target: T1, human cloned CHRM3 receptor (Homo sapiens, UniProt P20309); assay: CHRM3 Ca++ Flux Assay (M3_CHO cells, agonist mode); conditions: for EC50: agonist mode, geometric mean if tested more than once, read-out: M3 FDSS EC50
# T1 construct: expressed in transfected cells; host or cells: CHO-K1 (M3_CHO)
# Outline: (§1)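 Agonist-mode calcium mobilisation: compounds, 11 concentrations in triplicate, applied to stable M3_CHO or M5_CHO cells loaded with Ca++ dye, fluorescence followed 3 min. Efficacy expressed against carbachol EC100; EC curves by four-parameter nonlinear regression, geometric mean across independent runs.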
# [2] = molecular target: T2, human cloned CHRM5 receptor (Homo sapiens, UniProt P08912); assay: CHRM5 Ca++ Flux Assay (M5_CHO cells, agonist mode); conditions: for EC50: agonist mode, geometric mean if tested more than once, read-out: M5 FDSS EC50
# T2 construct: expressed in transfected cells; host or cells: CHO (M5_CHO)
# T2 sequence (P08912 1-532): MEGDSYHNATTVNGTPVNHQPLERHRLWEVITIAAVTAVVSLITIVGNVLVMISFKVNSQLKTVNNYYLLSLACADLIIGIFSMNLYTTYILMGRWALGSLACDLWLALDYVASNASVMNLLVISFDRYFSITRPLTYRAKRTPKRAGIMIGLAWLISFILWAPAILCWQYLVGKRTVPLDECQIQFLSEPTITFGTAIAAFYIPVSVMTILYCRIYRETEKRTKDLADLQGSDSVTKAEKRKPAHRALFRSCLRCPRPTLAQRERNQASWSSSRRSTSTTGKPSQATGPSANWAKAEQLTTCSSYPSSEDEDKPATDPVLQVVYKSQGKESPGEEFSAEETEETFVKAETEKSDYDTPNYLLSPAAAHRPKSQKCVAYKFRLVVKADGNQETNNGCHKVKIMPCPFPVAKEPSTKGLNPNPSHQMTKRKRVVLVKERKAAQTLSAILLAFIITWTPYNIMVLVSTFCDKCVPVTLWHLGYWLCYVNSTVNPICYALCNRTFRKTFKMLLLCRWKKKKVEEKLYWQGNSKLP
# Outline: as §1
# [3] = molecular target: T3, human cloned CHRM2 receptor (Homo sapiens, UniProt P08172); assay: CHRM2 Ca++ Flux Assay (M2_CHO cells, agonist mode); conditions: M2 CHO cells; for EC50: agonist mode, geometric mean if tested more than once, read-out: M2 FDSS EC50
# T3 construct: expressed in transfected cells; host or cells: CHO-K1 (M2_CHO)
# T3 sequence (P08172 1-466): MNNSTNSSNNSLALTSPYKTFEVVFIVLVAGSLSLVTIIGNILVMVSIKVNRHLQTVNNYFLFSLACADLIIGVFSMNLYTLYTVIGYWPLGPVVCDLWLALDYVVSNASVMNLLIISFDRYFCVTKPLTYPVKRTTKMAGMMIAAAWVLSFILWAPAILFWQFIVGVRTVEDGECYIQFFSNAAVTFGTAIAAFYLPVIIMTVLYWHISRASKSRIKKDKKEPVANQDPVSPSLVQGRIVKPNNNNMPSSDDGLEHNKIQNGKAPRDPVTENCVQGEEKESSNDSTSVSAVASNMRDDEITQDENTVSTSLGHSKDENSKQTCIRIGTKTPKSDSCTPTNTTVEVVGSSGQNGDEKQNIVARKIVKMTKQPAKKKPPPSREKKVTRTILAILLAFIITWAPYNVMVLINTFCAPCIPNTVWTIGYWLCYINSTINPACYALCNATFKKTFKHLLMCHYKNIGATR
# Outline: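 Agonist activity was expressed as percent of the carbachol EC100 response, fitted by four-parameter regression on triplicate wells, with geometric means across repeat runs. Calcium traces over 3 minutes came from dye-loaded M2_CHO cells (12K/well) pre-incubated 60 min in Ca/Mg-free HBSS with 20 mM HEPES, 2.5 mM probenecid and 20 μM ATP.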
# [4] = Percent Activity (PA) measured to EC100 of Carbachol
# T1 sequence (P20309 whole entry): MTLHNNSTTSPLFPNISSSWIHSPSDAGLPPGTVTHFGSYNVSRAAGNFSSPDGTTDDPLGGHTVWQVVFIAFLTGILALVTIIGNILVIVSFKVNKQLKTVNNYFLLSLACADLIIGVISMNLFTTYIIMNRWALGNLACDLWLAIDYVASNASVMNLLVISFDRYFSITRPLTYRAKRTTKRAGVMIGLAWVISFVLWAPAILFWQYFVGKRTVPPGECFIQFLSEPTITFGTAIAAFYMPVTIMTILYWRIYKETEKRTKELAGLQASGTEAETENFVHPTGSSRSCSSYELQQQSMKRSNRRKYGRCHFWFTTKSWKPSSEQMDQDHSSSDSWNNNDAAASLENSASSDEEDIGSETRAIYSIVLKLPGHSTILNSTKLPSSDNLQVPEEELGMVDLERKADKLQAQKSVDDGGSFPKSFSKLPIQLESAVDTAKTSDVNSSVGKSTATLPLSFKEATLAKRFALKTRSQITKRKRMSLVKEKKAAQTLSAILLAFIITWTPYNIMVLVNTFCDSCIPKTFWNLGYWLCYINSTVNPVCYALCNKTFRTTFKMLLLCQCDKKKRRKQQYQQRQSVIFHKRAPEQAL
"Emax ([1]; Percent Activity (PA) measured to EC100 of Carbachol, read-out: M3 FDSS PA %) [%]","Emax ([2]; Percent Activity (PA) measured to EC100 of Carbachol, read-out: M5 FDSS PA %) [%]","Emax ([3]; Percent Activity (PA) measured to EC100 of Carbachol, read-out: M2 FDSS PA %) [%]",SMILES,"M3 FDSS PA % [1, 4] [%]",EC50 [1] [µM],"M5 FDSS PA % [2, 4] [%]",EC50 [2] [µM],EC50 [3] [µM],"M2 FDSS PA % [3, 4] [%]"
–,–,–,"c1ccc([C@@H]2CCOC2)c(C2CCN([C@@H]3COC4(C3)CN(c3nnco3)C4)CC2)c1 (single isomer, unassigned) [Example 3A, (S)-2-(1,3,4-oxadiazol-2-yl)-7-(4-(2-((S)-tetrahydrofuran-3-yl)phenyl)piperidin-1-yl)-5-oxa-2-azaspiro[3.4]octane or (S)-2-(1,3,4-oxadiazol-2-yl)-7-(4-(2-((R)-tetrahydrofuran-3-yl)phenyl)piperidin-1-yl)-5-oxa-2-azaspiro[3.4]octane]",0,> 25,0,> 25,1.57,35
0,0,29,Fc1ccc(OC[C@H]2COCCO2)c(C2CCN([C@@H]3COC4(C3)CN(c3nnco3)C4)CC2)c1 [Example 1C],–,> 25,–,> 25,0.503,–

# From patent US11485742B2, “2-azaspiro[3.4]octane derivatives as M4 agonists” (NOVARTIS AG, priority 2019, dated 2022)
